Columns and labels:
[1] = tested on: miR-15b; assay: miR-15b expression by qRT-PCR after 5-Aza-2′-deoxycytidine treatment; type: cell-based, human; conditions: 5 µM (MEG-01, THP-1, OCI-AML3) or 2.5 µM (U-937, MV4-11), 4 days; in a few cell lines; vs untreated; FIG. 5F
Procedure: (§1) FIGS. 5A-5F show genetic and epigenomic screening of AML cell lines. […] TBP was used as a loading control (TATA-binding protein). […] In FIGS. 5C and 5E, at least 3 clones are analyzed for each cell line. The CpG island is pictured and each vertical bar represent a single CpG (depicted by *) or a single non-CpG site. Black (CpG site) and grey (non-CpG site) squares represent methylated CpG and white squares represent unmethylated CpG.
(§2) Total RNA was isolated from human samples and cell lines using TRIzol (Invitrogen, Carlsbad, CA), following the provided instructions. For qRT-PCR, TaqMan miRNA assays (miR-15a#000389, miR-15b#000390, miR-16#000391, (Thermo Fisher Scientific, Waltham, MA)) were used to detect mature miRNAs. For all RNAs from AML patients, reverse transcription reactions were performed using the TaqMan miRNA Reverse Transcription Kit (Applied Biosystems, Foster City, CA) and a RT primer pool by pooling all miRNA-specific stem-loop primers of interest. […]
(§3) MEG-01, THP-1 and OCI-AML3 cells were treated with 5 µM 5-Aza-2′-deoxycytidine (5-Aza-dC) (Sigma-Aldrich, St. Louis, MO), whereas U-937 and MV4-11 cells were treated with 2.5 µM 5-Aza-dC. After 4 days of treatments (fresh drug was added every 24 hour), cells were harvested and total RNA was isolated and analyzed for qRT-PCR analysis. […]

[2] = tested on: miR-15a; assay: miR-15a expression by qRT-PCR after 5-Aza-2′-deoxycytidine treatment; type: cell-based, human; conditions: 5 µM (MEG-01, THP-1, OCI-AML3) or 2.5 µM (U-937, MV4-11), 4 days; in a few cell lines; vs untreated; FIG. 5D
Procedure: as §1, §2, §3

SMILES: Nc1ncn([C@H]2C[C@H](O)[C@@H](CO)O2)c(=O)n1 [5-Aza-dC, 5-Aza-2′-deoxycytidine]
- expression of silenced miR-15b after treatment [1]: increased expression
- expression of silenced miR-15a after treatment [2]: increased expression

Source: patent US20230183808A1, “Methods of Detecting and Treating Cancers Characterized by Loss of miR15 and miR16 Expression” (priority 2020, published 2023)
